The record followed here is patent publication US8153821B2, “Compounds” (priority 2008, dated 2012).

Data set [1] is described as follows: Dynamic vapor sorption (DVS). It is filed as physicochemical. The conditions noted are these: 25° C. On the procedure:
Sorption isotherms were determined using a SMS DVS Intrinsic moisture sorption analyzer controlled by SMS Analysis suite software. The sample temperature was maintained at 25° C. by the instrument controls. The humidity was controlled by mixing streams of dry and wet nitrogen, with a total flow rate of 200 mL/min. The relative humidity was measured by a calibrated Rotronic probe (dynamic range of 1.0-100% RH), located near the sample. The weight change, (mass relaxation) of the sample as a function of % RH was constantly monitored by the microbalance (accuracy ±0.005 mg).
Typically a 5-20 mg sample was placed on the tared mesh stainless steel basket under ambient conditions. The sample was loaded and unloaded at 40% RH and 25° C. (typical ambient conditions). A moisture sorption isotherm was performed as outlined below (2 scans giving 1 complete cycle). The standard isotherm was performed at 25° C. at 10% RH intervals over a 0-90% RH range.

With `C(=C\[C@H]1CCNC1)/c1cncc(OC2CCOCC2)c1.O=C(O)C(=O)O`, the melting point lay within 180 to 181 °C.

In the case of `C(=C\[C@H]1CCNC1)/c1cncc(OC2CCOCC2)c1.O=C(O)C[C@H](O)C(=O)O` [(R)-3-((E)-2-(pyrrolidin-3-yl)vinyl)-5-(tetrahydropyran-4-yloxy)pyridine mono-L-malate], the DVS water uptake result in data set [1] is recorded as “minimum water uptake up to 80% R.H”.

What is called melting point is the temperature of the solid-liquid transition.
